Drawing on US12479847B2 (DANA-FARBER CANCER INSTITUTE, INC., priority 2019, dated 2025), this text covers IC50 for 21 molecules.

The structures appear in SMILES notation.

Chain of human LRRK2 kinase (Q5S007 whole entry): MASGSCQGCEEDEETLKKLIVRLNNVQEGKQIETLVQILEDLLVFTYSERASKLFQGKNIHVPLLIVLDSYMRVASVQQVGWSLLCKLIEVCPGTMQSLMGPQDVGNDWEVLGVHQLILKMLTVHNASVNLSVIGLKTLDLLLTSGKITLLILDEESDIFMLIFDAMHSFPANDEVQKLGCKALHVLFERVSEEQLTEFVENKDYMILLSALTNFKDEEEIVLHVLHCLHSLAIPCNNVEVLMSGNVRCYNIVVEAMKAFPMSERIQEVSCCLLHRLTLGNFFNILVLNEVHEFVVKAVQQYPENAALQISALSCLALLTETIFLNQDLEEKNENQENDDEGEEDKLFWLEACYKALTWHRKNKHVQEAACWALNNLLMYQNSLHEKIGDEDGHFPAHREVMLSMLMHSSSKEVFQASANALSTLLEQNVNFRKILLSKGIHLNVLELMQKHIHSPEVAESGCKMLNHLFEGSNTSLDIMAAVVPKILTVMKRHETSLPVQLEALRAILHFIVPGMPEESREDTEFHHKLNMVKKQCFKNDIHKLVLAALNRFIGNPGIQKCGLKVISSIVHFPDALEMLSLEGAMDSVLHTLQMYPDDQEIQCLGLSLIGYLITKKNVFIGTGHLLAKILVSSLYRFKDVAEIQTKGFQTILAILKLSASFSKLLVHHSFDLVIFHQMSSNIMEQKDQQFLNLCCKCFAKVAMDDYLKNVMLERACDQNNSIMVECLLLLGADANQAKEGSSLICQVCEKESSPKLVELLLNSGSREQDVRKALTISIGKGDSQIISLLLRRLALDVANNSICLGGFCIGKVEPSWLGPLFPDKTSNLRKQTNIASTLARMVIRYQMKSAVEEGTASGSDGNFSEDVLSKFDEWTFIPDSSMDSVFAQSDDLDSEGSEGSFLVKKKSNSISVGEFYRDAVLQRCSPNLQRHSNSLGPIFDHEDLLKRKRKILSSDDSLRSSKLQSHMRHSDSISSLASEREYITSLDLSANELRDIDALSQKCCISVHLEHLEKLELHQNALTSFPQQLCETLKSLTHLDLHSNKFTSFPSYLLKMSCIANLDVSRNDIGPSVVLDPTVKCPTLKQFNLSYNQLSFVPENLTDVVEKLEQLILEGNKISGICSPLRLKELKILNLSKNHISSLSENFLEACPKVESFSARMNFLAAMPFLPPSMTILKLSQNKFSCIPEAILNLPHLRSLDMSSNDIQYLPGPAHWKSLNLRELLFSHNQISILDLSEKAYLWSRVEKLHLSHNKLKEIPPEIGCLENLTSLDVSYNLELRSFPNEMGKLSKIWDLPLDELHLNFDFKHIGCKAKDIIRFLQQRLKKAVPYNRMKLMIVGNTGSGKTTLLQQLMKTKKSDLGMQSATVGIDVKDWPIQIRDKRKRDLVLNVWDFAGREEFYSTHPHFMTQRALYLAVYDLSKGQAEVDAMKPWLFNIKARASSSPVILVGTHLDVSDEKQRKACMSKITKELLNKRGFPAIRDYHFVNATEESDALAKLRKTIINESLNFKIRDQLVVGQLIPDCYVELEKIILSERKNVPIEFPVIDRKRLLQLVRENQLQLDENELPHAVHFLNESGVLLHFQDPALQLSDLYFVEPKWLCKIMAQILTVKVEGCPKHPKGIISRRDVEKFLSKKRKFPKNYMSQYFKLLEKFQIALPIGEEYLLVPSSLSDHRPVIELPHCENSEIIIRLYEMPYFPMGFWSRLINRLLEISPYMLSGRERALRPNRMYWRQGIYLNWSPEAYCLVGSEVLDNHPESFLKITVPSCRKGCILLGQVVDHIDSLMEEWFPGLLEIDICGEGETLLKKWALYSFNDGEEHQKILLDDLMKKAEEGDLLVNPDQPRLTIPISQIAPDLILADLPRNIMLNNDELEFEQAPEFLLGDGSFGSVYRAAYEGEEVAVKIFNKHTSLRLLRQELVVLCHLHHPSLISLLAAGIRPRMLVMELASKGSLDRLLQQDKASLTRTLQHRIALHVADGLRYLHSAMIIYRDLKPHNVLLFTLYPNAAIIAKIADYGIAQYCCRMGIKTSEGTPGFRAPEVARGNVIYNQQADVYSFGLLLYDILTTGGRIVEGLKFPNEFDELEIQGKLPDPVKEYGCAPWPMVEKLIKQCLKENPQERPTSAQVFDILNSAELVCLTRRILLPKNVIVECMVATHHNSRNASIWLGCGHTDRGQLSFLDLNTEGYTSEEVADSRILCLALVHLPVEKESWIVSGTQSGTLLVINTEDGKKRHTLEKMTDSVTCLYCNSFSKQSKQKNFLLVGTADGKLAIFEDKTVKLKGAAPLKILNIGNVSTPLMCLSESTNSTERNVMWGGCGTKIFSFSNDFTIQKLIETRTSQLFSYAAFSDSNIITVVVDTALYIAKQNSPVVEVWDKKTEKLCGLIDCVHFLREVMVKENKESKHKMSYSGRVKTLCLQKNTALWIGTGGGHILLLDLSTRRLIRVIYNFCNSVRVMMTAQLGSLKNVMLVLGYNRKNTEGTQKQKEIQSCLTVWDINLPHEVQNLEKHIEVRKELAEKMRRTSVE

The test addresses human LRRK2 kinase (Homo sapiens, UniProt Q5S007). The conditions noted are these: LRRK2, ADP-Glo, ATP 10 μM, 60 minutes at 25° C.
Protocol: Assay kits from Promega™ Corporation were used according to instructions and adapted as outlined herein. […] The kinase reaction was performed with kinase reaction buffer (40 mM Tris base pH 7.4, 20 mM MgCl2, 0.5 mM dithiothreitol), 0.1 mg/ml bovine serum albumin, distilled H2O). […] In brief, the kinase reactions were started by addition of ATP to the kinase reaction mixture. The resulting mixture was incubated for 60 minutes at 25° C., and then stopped by adding 5 μl of ADP-Glo™ reagent. After incubation at room temperature in the dark for 40 minutes, 10 μl of kinase detection reagent was added per well, and the mixture was incubated for 10 minutes. […] Positive and negative controls were performed in 0.5% DMSO in the presence and absence of LRRK2 kinases. Curve fitting and data presentations were performed using GraphPad Prism version 5.0 (GraphPad Software, Inc.).
`O=C(c1ccc(Nc2nc(NC3CCC3)c3c(Cl)c[nH]c3n2)c2c1CCO2)N1CCC(N2CCOCC2)CC1` [Compound 103, (7-((5-chloro-4-(cyclobutylamino)-7H-pyrrolo[2,3-d]pyrimidin-2-yl)amino)-2,3-dihydrobenzofuran-4-yl)(4-morpholinopiperidin-1-yl)methanone] had an IC50 of 10 to 100 nM.

`COCCNc1nc(Nc2ccc(S(=O)(=O)N3CCC(N4CCOCC4)CC3)cc2OC)nc2[nH]cc(Cl)c12` [Compound 22, 5-chloro-N2-(2-methoxy-4-((4-morpholinopiperidin-1-yl)sulfonyl)phenyl)-N4-(2-methoxyethyl)-7H-pyrrolo[2,3-d]pyrimidine-2,4-diamine] gave a 50% inhibitory concentration (IC50) of less than 10 nM.

For `COc1cc(P2(=O)CCN(C3CCOCC3)CC2)ccc1Nc1nc(NC2CCCCC2)c2c(Cl)c[nH]c2n1` [Compound 81, 4-(4-((5-chloro-4-(cyclohexylamino)-7H-pyrrolo[2,3-d]pyrimidin-2-yl)amino)-3-methoxyphenyl)-1-(tetrahydro-2H-pyran-4-yl)-1,4-azaphosphinane 4-oxide], the IC50 was 10 to 100 nM. With `CNc1nc(Nc2ccc(P3(=O)CCN(C4CC4)CC3)cc2OC)nc2[nH]cc(Cl)c12` [Compound 85, 4-(4-((5-chloro-4-(methylamino)-7H-pyrrolo[2,3-d]pyrimidin-2-yl)amino)-3-methoxyphenyl)-1-cyclopropyl-1,4-azaphosphinane 4-oxide] the figure was 10 to 100 nM; with `COc1cc(S(=O)(=O)N2CCOCC2)ccc1Nc1nc(NC2CCC2)c2c(Cl)c[nH]c2n1` [Compound 7, 5-chloro-N4-cyclobutyl-N2-(2-methoxy-4-(morpholinosulfonyl)phenyl)-7H-pyrrolo[2,3-d]pyrimidine-2,4-diamine], 100 to 1000 nM; with `CCNc1nc(Nc2ccc(S(=O)(=O)N3CCOCC3)cc2OC)nc2[nH]cc(Cl)c12` [Compound 6, 5-chloro-N4-ethyl-N2-(2-methoxy-4-(morpholinosulfonyl)phenyl)-7H-pyrrolo[2,3-d]pyrimidine-2,4-diamine], more than 1000 nM. In turn, `COCCNc1nc(Nc2ccc(C(=O)N3CCC(N4CCOCC4)CC3)c3c2OCCO3)nc2[nH]cc(Cl)c12` [Compound 5, (8-((5-chloro-4-((2-methoxyethyl)amino)-7H-pyrrolo[2,3-d]pyrimidin-2-yl)amino)-2,3-dihydrobenzo[b][1,4]dioxin-5-yl)(4-morpholinopiperidin-1-yl)methanone] had an IC50 of less than 10 nM.

In turn, `COc1cc(P2(=O)CCN(C(C)=O)CC2)ccc1Nc1nc(NC(C)C)c2c(Cl)c[nH]c2n1` [Compound 89, 1-(4-(4-((5-chloro-4-(isopropylamino)-7H-pyrrolo[2,3-d]pyrimidin-2-yl)amino)-3-methoxyphenyl)-4-oxido-1,4-azaphosphinan-1-yl)ethan-1-one] had an IC50 of 10 to 100 nM. With `COc1cc(S(=O)(=O)N2CCC(N3CCOCC3)CC2)ccc1Nc1nc(NCCS(C)(=O)=O)c2c(Cl)c[nH]c2n1` [Compound 69, 5-chloro-N2-(2-methoxy-4-((4-morpholinopiperidin-1-yl)sulfonyl)phenyl)-N4-(2-(methylsulfonyl)ethyl)-7H-pyrrolo[2,3-d]pyrimidine-2,4-diamine] the figure was less than 10 nM; with `COc1cc(P2(=O)CCN(C(C)=O)CC2)ccc1Nc1nc(NCC(C)C)c2c(Cl)c[nH]c2n1` [Compound 97, 1-(4-(4-((5-chloro-4-(isobutylamino)-7H-pyrrolo[2,3-d]pyrimidin-2-yl)amino)-3-methoxyphenyl)-4-oxido-1,4-azaphosphinan-1-yl)ethan-1-one], 10 to 100 nM. In the case of `COCCNc1nc(Nc2ccc(C(=O)N3CCOCC3)c3c2OCCO3)nc2[nH]cc(Cl)c12` [Compound 9, (8-((5-chloro-4-((2-methoxyethyl)amino)-7H-pyrrolo[2,3-d]pyrimidin-2-yl)amino)-2,3-dihydrobenzo[b][1,4]dioxin-5-yl)(morpholino)methanone] it was less than 10 nM.

On to `COc1cc(S(=O)(=O)N2CCC(N3CCOCC3)CC2)ccc1Nc1nc(N[C@H]2CCOC2)c2c(Cl)c[nH]c2n1` [Compound 61, (S)-5-chloro-N2-(2-methoxy-4-((4-morpholinopiperidin-1-yl)sulfonyl)phenyl)-N4-(tetrahydrofuran-3-yl)-7H-pyrrolo[2,3-d]pyrimidine-2,4-diamine], for which the half-maximal inhibitory concentration (IC50) was less than 10 nM.

With `CCCCNc1nc(Nc2ccc(S(=O)(=O)N3CCOCC3)cc2OC)nc2[nH]cc(Cl)c12` [Compound 71, N4-butyl-5-chloro-N2-(2-methoxy-4-(morpholinosulfonyl)phenyl)-7H-pyrrolo[2,3-d]pyrimidine-2,4-diamine], the IC50 lay in the range of 10 to 100 nM. With `CCCCNc1nc(Nc2ccc(C(=O)N3CCOCC3)c3c2OCCO3)nc2[nH]cc(Cl)c12` [Compound 74, (8-((4-(butylamino)-5-chloro-7H-pyrrolo[2,3-d]pyrimidin-2-yl)amino)-2,3-dihydrobenzo[b][1,4]dioxin-5-yl)(morpholino)methanone] the figure was 10 to 100 nM. With `CNc1nc(Nc2ccc(C(=O)N3CCOCC3)c3c2OCC3)nc2[nH]cc(Cl)c12` [Compound 76, (7-((5-chloro-4-(methylamino)-7H-pyrrolo[2,3-d]pyrimidin-2-yl)amino)-2,3-dihydrobenzofuran-4-yl)(morpholino)methanone], the IC50 is less than 10 nM. As for `CCCNc1nc(Nc2ccc(C(=O)N3CCOCC3)c3c2OCCO3)nc2[nH]cc(Cl)c12` [Compound 20, (8-((5-chloro-4-(propylamino)-7H-pyrrolo[2,3-d]pyrimidin-2-yl)amino)-2,3-dihydrobenzo[b][1,4]dioxin-5-yl)(morpholino)methanone], the IC50 lay in the range of 10 to 100 nM. `CC[C@@H](C)Nc1nc(Nc2ccc(C(=O)N3CCOCC3)c3c2OCCO3)nc2[nH]cc(Cl)c12` [Compound 50, (R)-(8-((4-(sec-butylamino)-5-chloro-7H-pyrrolo[2,3-d]pyrimidin-2-yl)amino)-2,3-dihydrobenzo[b][1,4]dioxin-5-yl)(morpholino)methanone] registered an IC50 of less than 10 nM. In turn, `COc1cc(S(=O)(=O)N2CCC(N3CCOCC3)CC2)ccc1Nc1nc(NC2CC2)c2c(Cl)c[nH]c2n1` [Compound 25, 5-chloro-N4-cyclopropyl-N2-(2-methoxy-4-((4-morpholinopiperidin-1-yl)sulfonyl)phenyl)-7H-pyrrolo[2,3-d]pyrimidine-2,4-diamine] gave an IC50 of less than 10 nM. Molecule `CCC(C)Nc1nc(Nc2ccc(S(C)(=O)=O)cc2OC)nc2[nH]cc(Cl)c12` (stereo in doubt) [Compound 53, (S)—N4-(sec-butyl)-5-chloro-N2-(2-methoxy-4-(methylsulfonyl)phenyl)-7H-pyrrolo[2,3-d]pyrimidine-2,4-diamine] had an IC50 of 100 to 1000 nM. The molecule `CCNc1nc(Nc2ccc(S(=O)(=O)N3CCC(N4CCOCC4)CC3)cc2OC)nc2[nH]cc(Cl)c12` [Compound 15, 5-chloro-N4-ethyl-N2-(2-methoxy-4-((4-morpholinopiperidin-1-yl)sulfonyl)phenyl)-7H-pyrrolo[2,3-d]pyrimidine-2,4-diamine] came in with an IC50 of less than 10 nM. In turn, `CCCCNc1nc(Nc2ccc(S(C)(=O)=O)cc2OC)nc2[nH]cc(Cl)c12` [Compound 73, N4-butyl-5-chloro-N2-(2-methoxy-4-(methylsulfonyl)phenyl)-7H-pyrrolo[2,3-d]pyrimidine-2,4-diamine] came in with a half-maximal inhibitory concentration (IC50) of 10 to 100 nM.
